Assay: heat capacity at constant pressure per volume; xn = mol fraction of the nth substance listed
Conditions: 101 kPa, Liquid, DSC, x2 = 0.713

CCCCCCCCCCCCCCCCCC [octadecane] + N#Cc1ccccc1
Conditions | heat capacity [J/K/m3]
311.31 K | 1755300
311.34 K | 1755200
311.37 K | 1751900
311.39 K | 1755200
311.42 K | 1754200
311.45 K | 1754700
311.48 K | 1751100
311.51 K | 1751000
311.54 K | 1753000
311.56 K | 1754300
311.59 K | 1755100
311.62 K | 1752800
311.65 K | 1748600
311.68 K | 1753400
311.7 K | 1751800
311.73 K | 1751000
311.76 K | 1752000
311.79 K | 1748500
311.82 K | 1747200
311.85 K | 1749600
311.87 K | 1749800
311.9 K | 1751600
311.93 K | 1750300
311.96 K | 1749700
311.99 K | 1747400
312.01 K | 1746900
312.04 K | 1752800
312.07 K | 1750900
312.1 K | 1745700
312.13 K | 1749200
312.15 K | 1747500
312.18 K | 1746000
312.21 K | 1746700
312.24 K | 1746500
312.27 K | 1747800
312.3 K | 1746300
312.32 K | 1744700
312.35 K | 1746400
312.38 K | 1744700
312.41 K | 1744900
312.44 K | 1743500
312.46 K | 1743700
312.49 K | 1747600
312.52 K | 1745100
312.55 K | 1746800
312.58 K | 1745400
312.6 K | 1744400
312.63 K | 1744300
312.66 K | 1743700
312.69 K | 1745000
312.72 K | 1743800
312.75 K | 1744000
312.77 K | 1743700
312.8 K | 1741400
312.83 K | 1742500
312.86 K | 1743700
312.88 K | 1745000
312.91 K | 1746300
312.94 K | 1744500
312.97 K | 1744100
313 K | 1743500
313.03 K | 1742300
313.05 K | 1742800
313.08 K | 1741900
313.11 K | 1742400
313.14 K | 1742800
313.17 K | 1739000
313.19 K | 1743700
313.22 K | 1740000
313.25 K | 1739100
313.28 K | 1738800
313.31 K | 1739500
313.33 K | 1740400
313.36 K | 1741400
313.39 K | 1740700
313.42 K | 1739700
313.45 K | 1740900
313.48 K | 1742600
313.5 K | 1740800
313.53 K | 1739000
313.56 K | 1737700
313.59 K | 1739600
313.62 K | 1740700
313.64 K | 1741100
313.67 K | 1740500
313.7 K | 1740400
313.73 K | 1741200
313.76 K | 1739900
313.79 K | 1739100
313.81 K | 1739300
313.84 K | 1739200
313.87 K | 1738900
313.9 K | 1738100
313.93 K | 1738700
313.95 K | 1735100
313.98 K | 1738800
314.01 K | 1737700
314.04 K | 1736700
314.07 K | 1735400
314.09 K | 1737000
314.12 K | 1736800
314.15 K | 1737300
314.18 K | 1733500
314.21 K | 1737800
314.24 K | 1735200
314.26 K | 1736900
314.29 K | 1735200
314.32 K | 1736400
314.35 K | 1737400
314.38 K | 1736600
314.4 K | 1738700
314.43 K | 1736600
314.46 K | 1737000
314.49 K | 1735500
314.52 K | 1735300
314.54 K | 1735400
314.57 K | 1735300
314.6 K | 1735500
314.63 K | 1734500
314.66 K | 1737100
314.68 K | 1735100
314.71 K | 1733900
314.74 K | 1734500
314.77 K | 1733900
314.8 K | 1737400
314.82 K | 1736200
314.85 K | 1735600
314.88 K | 1735100
314.91 K | 1734300
314.94 K | 1734100
314.96 K | 1733300
314.99 K | 1735100
315.02 K | 1735000
315.05 K | 1735200
315.08 K | 1732600
315.2 K | 1734500
315.38 K | 1734200

Source: the NIST ThermoML archive (doi:10.1016/j.jct.2012.12.001)
